Test results published in patent US20200031811A1, “SUBSTITUTED MONO- AND POLYAZANAPHTHALENE DERIVATIVES AND THEIR USE” (Basilea Pharmaceutica International AG, priority 2015, published 2020).

Legend:
MNK1 = molecular target: T1, MNK1 (Homo sapiens, UniProt Q9BUB5); experiment: MNK inhibition assay (Z-Lyte kinase assay, Ser/Thr 7 peptide); assay type: biochemical; conditions: for IC50: recombinant GST-MNK1, 3 hours at 31° C.
T1 construct: purchased Life Technologies or Carna Biosciences PV6023 or 02-145; host or cells: baculovirus infected insect cells
T1 sequence (Q9BUB5 whole entry): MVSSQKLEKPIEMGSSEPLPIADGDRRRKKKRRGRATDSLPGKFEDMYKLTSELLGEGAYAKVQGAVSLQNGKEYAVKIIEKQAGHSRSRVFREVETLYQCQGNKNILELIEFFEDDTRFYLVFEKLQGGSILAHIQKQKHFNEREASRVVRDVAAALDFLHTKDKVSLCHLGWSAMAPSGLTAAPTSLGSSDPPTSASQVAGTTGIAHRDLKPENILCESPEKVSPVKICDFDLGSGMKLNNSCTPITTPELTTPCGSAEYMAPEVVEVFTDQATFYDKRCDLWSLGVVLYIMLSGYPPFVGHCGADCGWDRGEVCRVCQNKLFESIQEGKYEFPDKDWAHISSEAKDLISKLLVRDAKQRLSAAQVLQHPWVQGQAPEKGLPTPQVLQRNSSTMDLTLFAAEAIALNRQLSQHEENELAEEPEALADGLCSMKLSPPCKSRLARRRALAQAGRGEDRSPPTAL
Excerpt: For the measurement of the activity of the MNK1 kinase the Z-Lyte kinase assay system was used. The kinase activity of MNK1 can be quantified with the Z-Lyte kinase assay kit Ser/Thr 7 peptide (Life Technologies PV3180). The kit was utilized according to the instructions of the provider. A recombinant GST-MNK1 fusion protein produced in and purified from baculovirus infected insect cells was used as enzyme source (GST-MNK1 Life Technologies PV6023 or Carna Biosciences 02-145). It was verified that both sources of the MNK1 enzyme gave similar IC50 values with several compounds. The MNK1 enzyme assay was performed in 384 well round bottom black microtiter plates (Corning 3676). The kinase reaction was performed for 3 hours at 31° C. As instructed by the provider of the kit the amount of enzyme was chosen such that ˜30% of the substrate peptide was phosphorylated in control wells containing buffer only. The MNK1 inhibiting activity of compounds was tested by adding the compounds to the kinase reaction at a concentration of 10000, 5000, 2000, 1000, 500, 200, 100, 50 nM. Compounds with strong MNK1 inhibition were tested at 20, 10, 5, 2, 1 and 0.5 nM in addition. Each compound concentration was tested at least in duplicate. The % phosphorylation of the substrate peptide at each compound concentration was calculated as described in the assay manual. The fluorescent signals were recordes on Biotek Cytation 3 microplate reader. The IC50, the concentration that reduced substrate phosphorylation by 50% if compared to buffer only wells, was calculated with the Grafit 6 software (Erythacus software).

[1] = tested on: human pancreatic cancer cell line MiaPaCa2 (ATCC CRL-1420); experiment: Cell growth assay (CellTiterGlo, 72 hours); assay type: cell-based; conditions: for IC50: MIA PaCa-2, MiaPaCa2 cells, 72 hours, read-out: IC50 MiaPaCa; for inhibition at 100 µM: MIA PaCa-2, at 100 μM
Experimental: The inhibition of cell growth by the compounds was tested by exposing the human pancreatic cancer cell line MiaPaCa2 (ATCC CRL-1420) to the compounds. The assay was performed in 384 well clear bottom white microtiter plates (Greiner #781098). Each well was seeded with 10^3 cells in 20 μl of Dulbecco's modified Eagle's medium (Sigma D6796) supplied with 10% fetal calf scrum (Sigma F7524), 2.5% horse serum (Sigma H0146), 1% Penicillin-Streptomycin (Sigma P0781), 1% MEM nonessential amino acid solution 100× (Sigma M71459) and 1% 200 mM L-Glutamine (Sigma G7513) culture medium. After overnight incubation at 37° C. in 5% CO2 the compounds were added in the following concentrations: 100, 50, 20, 10, 5, 2, 1, 0.5, 0.2 and 0.1 μM. Each compound concentration was tested in quadruplicate. The incubation was then continued for 72 hours. After 72 hours the growth of the cells was assessed by the addition of the CellTiterGlo reagent (Promega G9242) as instructed by the provider. The luminescent signal was recorded on a SpectraMax M2 microplate reader. The signal obtained in wells containing cells cultivated in the absence of compound was set to 100% growth after subtracting the signal obtained in medium only wells. The % growth in each well was calculated by subtracting the medium only value and dividing through the 100% growth value. The IC50 for cell growth, the concentration of compound at which cell growth was reduced to 50%, was calculated with the GraFit6 software (Erythacus software).

[2] = read-out: Inhibition of MNK1 activity at indicated concentration
[3] = read-out: Inhibition of MiaPaCa growth at indicated concentration

Structure (SMILES) | IC50 (MNK1) | IC50 [1] | also measured
Nc1ncc(-c2ccc(O)cc2)c2cc(CN3CCC(N)CC3)ccc12 [Example 94] | 0.221 µM | – | inhibition at 50 µM ([1]; MIA PaCa-2, at 50 μM, read-out: Inhibition of MiaPaCa growth at indicated concentration): 27%
CN(C)CCOc1ccc2cncc(-c3cc4ccccc4o3)c2c1 [Example 95, 2-[[4-(Benzofuran-2-yl)-6-isoquinolyl]oxy]-N,N-dimethyl-ethanamine] | 1.73 µM | 8.38 µM | –
Cn1nccc1Oc1ccc2cncc(-c3cc4ccccc4o3)c2c1 [Example 96] | 3.99 µM | 6.14 µM | –
Cn1nccc1OCc1ccc2cncc(-c3cc4ccccc4o3)c2c1 [Example 97, 4-(Benzofuran-2-yl)-6-[(2-methylpyrazol-3-yl)oxymethyl]isoquinoline] | 0.397 µM | 10.8 µM | –
Cn1nccc1Nc1ccc2cncc(-c3cc4ccccc4o3)c2c1 [Example 98, 4-(Benzofuran-2-yl)-N-(2-methylpyrazol-3-yl)isoquinolin-6-amine] | – | 9.88 µM | inhibition at 1 µM (MNK1; [2]): 40%
CN(C)CCNc1ccc2cncc(-c3cc4ccccc4o3)c2c1 [Example 99, N-[4-(Benzofuran-2-yl)-6-isoquinolyl]-N′,N′-dimethyl-ethane-1,2-diamine] | – | 4.39 µM | inhibition at 1 µM (MNK1; [2]): 60%
NCCNc1ccc2cncc(-c3cc4ccccc4o3)c2c1 [Example 100, N′-[4-(Benzofuran-2-yl)-6-isoquinolyl]ethane-1,2-diamine] | – | 4.01 µM | inhibition at 10 µM (MNK1; at 10 μM, read-out: Inhibition of MNK1 activity at indicated concentration): 51%
Cn1nccc1NCc1ccc2cncc(-c3cc4ccccc4o3)c2c1 [Example 101] | 0.18 µM | 18.9 µM | –
NCCOc1ccc2cncc(-c3cc4ccccc4o3)c2c1 [Example 102, 2-[[4-(Benzofuran-2-yl)-6-isoquinolyl]oxy]ethanamine] | 1.05 µM | 7 µM | –
NCCCNC(=O)c1ccc2cncc(-c3cc4ccccc4o3)c2n1 [Example 103, N-(3-aminopropyl)-8-(benzofuran-2-yl)-1,6-naphthyridine-2-carboxamide] | 0.088 µM | 4.12 µM | –
NCCCOCc1ccc2cncc(-c3cc4ccccc4o3)c2c1 [Example 105, 3-[[4-(Benzofuran-2-yl)-6-isoquinolyl]methoxy]propan-1-amine] | 0.089 µM | 12.8 µM | –
NCCCOCc1ccc2cncc(-c3ccc(Cl)cc3)c2c1 [Example 106] | – | 20.7 µM | inhibition at 1 µM (MNK1; [2]): 34%
NCCCOCc1ccc2cncc(-c3ccc(Cl)c(Cl)c3)c2c1 [Example 107] | 1.12 µM | 21 µM | –
NCCCOCc1ccc2cncc(-c3ccc(NC(=O)Nc4ccccc4)cc3)c2c1 [Example 108, 1-[4-[6-(3-Aminopropoxymethyl)-4-isoquinolyl]phenyl]-3-phenyl-urea] | 3.51 µM | 15 µM | –
NCCCOCc1ccc2c(N)ncc(-c3cc4ccccc4o3)c2c1 [Example 109, 6-(3-Aminopropoxymethyl)-4-(benzofuran-2-yl)isoquinolin-1-amine] | 0.687 µM | 8.54 µM | –
NCCCOCc1ccc2c(N)ncc(-c3ccc(Cl)cc3)c2c1 [Example 110] | 0.395 µM | 11.3 µM | –

Second part, led by results:

IC50 (MNK1) | IC50 [1] | Structure (SMILES) | also measured
1.15 µM | 8.32 µM | NCCCOCc1ccc2c(N)ncc(-c3ccc(Cl)c(Cl)c3)c2c1 [Example 111] | –
– | 43.8 µM | NCCCOCc1ccc2c(N)ncc(-c3ccc(NC(=O)Nc4ccccc4)cc3)c2c1 [Example 112, 1-[4-[1-Amino-6-(3-aminopropoxymethyl)-4-isoquinolyl]phenyl]-3-phenyl-urea] | inhibition at 1 µM (MNK1; [2]): 19%
3.15 µM | 9.21 µM | NC1CCN(Cc2ccc3cncc(-c4ccc(NC(=O)Nc5ccc(Cl)cc5)cc4)c3c2)CC1 [Example 113, 1-[4-[6-[(4-Amino-1-piperidyl)methyl]-4-isoquinolyl]phenyl]-3-(4-chlorophenyl)urea] | –
1.21 µM | 3.83 µM | NC1CCN(Cc2ccc3cncc(-c4ccc(NC(=O)Nc5cccc(Cl)c5)cc4)c3c2)CC1 [Example 114] | –
0.49 µM | – | NC1CCN(Cc2ccc3cncc(-c4ccc(NC(=O)Nc5ccncc5)cc4)c3c2)CC1 [Example 115] | inhibition at 100 µM [1, 3]: 52%
0.887 µM | 3.07 µM | CC(C)(C)c1cc(NC(=O)Nc2ccc(-c3cncc4ccc(CN5CCC(N)CC5)cc34)cc2)no1 [Example 116] | –
0.603 µM | – | NC1CCN(Cc2ccc3cncc(-c4ccc(NC(=O)Nc5cccnc5)cc4)c3c2)CC1 [Example 117] | inhibition at 100 µM [1, 3]: 34%
0.422 µM | – | NC1CCN(Cc2ccc3cncc(-c4ccc(NC(=O)NC5CC5)cc4)c3c2)CC1 [Example 118] | inhibition at 100 µM [1, 3]: 48%
0.388 µM | 2.56 µM | NC1CCN(Cc2ccc3cncc(-c4ccc(NC(=O)Nc5ccccn5)cc4)c3c2)CC1 [Example 119] | –
0.683 µM | 18.7 µM | Cc1cc(NC(=O)Nc2ccc(-c3cncc4ccc(CN5CCC(N)CC5)cc34)cc2)on1 [Example 120, 1-[4-[6-[(4-Amino-1-piperidyl)methyl]-4-isoquinolyl]phenyl]-3-(3-methylisoxazol-5-yl)urea] | –
0.165 µM | 21.8 µM | Nc1cc[n+](Cc2ccc3cncc(-c4ccccc4)c3c2)cc1 [Example 121, 1-[(4-Phenyl-6-isoquinolyl)methyl]pyridin-1-ium-4-amine] | –
0.028 µM | – | Nc1cc[n+](Cc2ccc3cncc(-c4ccc(O)cc4)c3c2)cc1 [Example 122] | inhibition at 100 µM [1, 3]: 37%
0.132 µM | 7.92 µM | Nc1cc[n+](Cc2ccc3cncc(-c4ccc(Cl)cc4)c3c2)cc1 [Example 123] | –
2.08 µM | 45.8 µM | Nc1cc[n+](Cc2ccc3cncc(-c4ccc(NC(=O)Nc5ccccc5)cc4)c3c2)cc1 [Example 124] | –
0.052 µM | 4.04 µM | Cc1cc(N)cc[n+]1Cc1ccc2cncc(-c3cc4ccccc4o3)c2c1 [Example 125, 1-[[4-(Benzofuran-2-yl)-6-isoquinolyl]methyl]-2-methyl-pyridin-1-ium-4-amine] | –
0.363 µM | 5.5 µM | Cc1cc(NCc2ccc3cncc(-c4cc5ccccc5o4)c3c2)cc(C)n1 [Example 126] | –
0.021 µM | 8.48 µM | Nc1cc[n+](Cc2ccc3cncc(-c4cc5ccccc5o4)c3c2)nc1 [Example 127] | –
0.084 µM | 15.8 µM | c1ccc2oc(-c3cncc4ccc(CNc5ccncn5)cc34)cc2c1 [Example 128] | –
0.143 µM | 23.1 µM | Nc1ccc(NCc2ccc3cncc(-c4cc5ccccc5o4)c3c2)cn1 [Example 129] | –
0.021 µM | 0.58 µM | Nc1cc(NCc2ccc3cncc(-c4cc5ccccc5o4)c3c2)ccn1 [Example 130, N4-[[4-(Benzofuran-2-yl)-6-isoquinolyl]methyl]pyridine-2,4-diamine] | –
3.12 µM | – | Nc1ccc(Nc2ccc3cncc(-c4cc5ccccc5o4)c3c2)cc1 [Example 132, N1-[4-(Benzofuran-2-yl)-6-isoquinolyl]benzene-1,4-diamine] | inhibition at 100 µM [1, 3]: 53%
0.152 µM | 11.5 µM | NCc1ccc(Nc2ccc3cncc(-c4cc5ccccc5o4)c3c2)cc1 [Example 133] | –
4.68 µM | – | c1cncc(Nc2ccc3cncc(-c4cc5ccccc5o4)c3c2)c1 [Example 134] | inhibition at 100 µM [1, 3]: 45%
4.68 µM | 10.9 µM | Nc1cccc(Nc2ccc3cncc(-c4cc5ccccc5o4)c3c2)c1 [Example 135] | –
